Reference: patent publication US11873320B2 (REATA PHARMACEUTICALS HOLDINGS, LLC, priority 2013, dated 2024)

What was measured:
[1] = oral pharmacokinetics in monkeys; type: in vivo, monkey; details: 3 mg/kg
Procedure: Following oral administration of a suspension formulation at doses of 10 to 100 mg/kg, maximal concentrations were observed within 1 to 2 hours in mice, and within 1 to 24 hours in rats and monkeys.

C2C12 muscle cells = test: glycolytic intermediates in C2C12 myotubes; type: cell-based, rodent
glutathione levels = test: induction of glutathione levels, RAW264.7 mouse model; type: cell-based
Excerpt: Glutathione and NADPH are critical factors required for the maintenance of cellular redox capacity. […] Data shown are representative of two independent experiments.

transaminase mRNA levels = test: transaminase gene expression in AML-12 hepatocytes; type: cell-based, mouse; details: 250 nM or 500 nM, 18 hours
Excerpt: (§1) One hypothesis for this effect is that AIMs directly or indirectly increase transaminase gene expression in the absence of cellular toxicity.

[2] = metabolism in human liver microsomes
LPS-induced NO = test: in vivo NO suppression after LPS, CD-1 mice; details: mouse
[3] = tested on: TNFα-induced NF-κB activation; test: TNFα-induced NF-κB luciferase reporter, HeLa/NF-κB-Luc cells; type: cell-based; details: Homo sapiens, 1 h pretreatment, TNFα 10 ng/mL 5 h
Excerpt: NF-κB is a transcription factor that plays a central role in the regulation of many immune and inflammatory responses.

CYP2B6 = test: CYP450 induction in cultured human hepatocytes: CYP2B6; type: in vitro ADME; details: up to 3 μM
[4] = oral pharmacokinetics, statements pooled over mice, rats and monkeys; type: in vivo
NADPH levels = test: WST-1 absorbance as marker of NADPH in HCT-116 cells; type: cell-based; details: 24 hours
rats = test: 28-day toxicity study in rats; type: in vivo, rat
Excerpt: as §1

LPS-induced sepsis = details: mouse, in vivo
CYP1A2 = test: CYP450 induction in cultured human hepatocytes: CYP1A2; type: in vitro ADME; details: up to 3 μM
CD rats = test: neurobehavioral evaluation in rats (FOB); type: in vivo, rat
Procedure: One additional group of 10 animals/sex served as the control and received vehicle (sesame oil).
Observations for morbidity, mortality, injury, and availability of food and water were conducted twice daily for all animals. Observations for clinical signs were conducted prior to dosing on Day 1 and following each functional observational battery (FOB) evaluation. FOB evaluations were conducted pre-dose (Day −1) and at approximately 4 and 24 hours post-dose. Body weights were measured and recorded pre-dose on Day 1.

STAT3 phosphorylation = test: IL-6-induced STAT3 phosphorylation in HeLa cells; type: cell-based, human; details: 1 μM, 6 hours pretreatment
Excerpt: Osteoclastogenesis is a multi-step differentiation process that results from the binding of RANKL to its receptor, RANK, on cells of hematopoietic origin.

[5] = tested on: bleomycin-induced pulmonary fibrosis; test: bleomycin-induced pulmonary fibrosis in mice; type: in vivo, mouse; details: 10, 30, or 100 mg/kg, 39 days
Procedure: Bleomycin was given on Day 0. Daily weights were measured. BAL fluid cell counts were obtained at sacrifice. […] No significant improvement in chronic inflammation score, interstitial fibrosis, or number of fibrotic foci was observed.
On the last day of dosing, lung tissue was collected and histology was performed to evaluate the extent of inflammation and interstitial fibrosis. […] Additional evaluation was performed using a rat model of pulmonary fibrosis that has been extensively characterized at the Lovelace Respiratory Research Institute. In this study, rats were challenged with bleomycin or saline by intratracheal administration on day 0. […] For the remaining animals, bronchoalveolar lavage fluid was collected on day 28 for assessment of pro-inflammatory infiltrates, and lung tissue was analyzed for hydroxyproline levels and histopathology. Challenge with bleomycin sulfate induced a substantial release of neutrophils and an increase in soluble collagen in the BALF, as well as an increase in hydroxyproline in the lung.

NQO1 protein = test: Nrf2 target protein levels in SH-SY5Y cells; type: cell-based, human; details: dose-dependent
Procedure: HMOX1 protein was not detected in untreated or RTA 408-treated SH-SY5Y cells. […] The same amount of 63170 (54.6 nM) was required.

[6] = tested on: genotoxicity (micronucleated polychromatic erythrocytes); test: in vivo micronucleus study
[7] = topical ocular administration pharmacokinetics in rabbits; type: in vivo, rabbit
Procedure: Using rabbits, the ocular absorption and systemic pharmacokinetic behavior of RTA 408 was evaluated.

## CC1(C)CC[C@]2(NC(=O)C(C)(F)F)CC[C@]3(C)[C@H](C(=O)C=C4[C@@]5(C)C=C(C#N)C(=O)C(C)(C)[C@@H]5CC[C@]43C)[C@@H]2C1 [RTA 408, N-((4aS,6aR,6bS,8aR,12aS,14aR,14bS)-11-cyano-2,2,6a,6b,9,9,12a-heptamethyl-10,14-dioxo-1,2,3,4,4a,5,6,6a,6b,7,8,8a,9,10,12a,14,14a,14b-octadecahydropicen-4a-yl)-2,2-difluoropropanamide]
[1]
  dose-normalized systemic exposure of loose-filled capsule vs suspension formulation: somewhat lower
C2C12 muscle cells; 250 nM or 500 nM, 18 hours, P<0.0001
  intracellular pyruvate levels: increased intracellular pyruvate levels
C2C12 muscle cells; 1 μM or 2 μM, 3 hours
  intracellular and extracellular lactate levels: significantly increased intracellular and extracellular lactate levels
Glutathione levels
  EC50: 9.9 nM
Transaminase mRNA levels
  alanine transaminase 1 (Alt1 or Gpt1) mRNA: increased mRNA levels
  alanine transaminase 2 (Alt2 or Gpt2) mRNA: no effect
  aspartate transaminase 1 (Ast1 or Got1) mRNA: increased mRNA levels
  aspartate transaminase 2 (Ast2 or Got2) mRNA: reduced mRNA levels
[2]
  unique human metabolites: No unique human metabolites
[2]; 60-minute incubation, NADPH and UGT
  parent molecule remaining: < 10%
LPS-induced NO
  NO in vivo: dose-dependently suppresses NO in vivo
[3]
  IC50: 517 ± 83 nM
CYP2B6
  induction of enzyme activity: not an inducer
[4]; 3 to 100 mg/kg, suspension
  dose dependence of systemic exposure: dose-proportional increases in systemic exposure
[4]; 100 to 800 mg/kg in monkeys, 500 to 2000 mg/kg in rats
  exposure at higher doses: saturation of absorption at doses above 100 mg/kg
[4]; in vivo
  systemic exposure by sex: generally similar in males and females
[4]; in vivo, po
  exposure after repeated daily oral administration vs single dose: ≤ 2 fold
NADPH levels
  WST-1 absorbance (NADPH marker): increased WST-1 absorbance in a dose-dependent manner
rats
  transaminases: Transaminase elevations
LPS-induced sepsis
  survival, systemic LPS: improved survival
CYP1A2
  induction of enzyme activity: not an inducer
CD rats; 30 mg/kg
  body weight gain approximately 24 hours after dosing: Slight decreases in body weight gain
CD rats; doses up to and including 30 mg/kg, single oral dose
  basic neurobehavioral endpoints: did not produce any adverse effects
STAT3 phosphorylation
  IL-6-induced phosphorylation of STAT3: inhibited phosphorylation of STAT3 induced by IL-6
[5]
  inflammation and interstitial fibrosis (histology): no statistically significant effects
NQO1 protein
  NQO1 protein levels: increased NQO1 protein levels
[6]; 125 mg/kg, 24-h timepoint
  Change from Control (%): −8%
  Number of MPCE/1000 PCE (Mean +/− SD): 0.3 ± 0.27
  Number of MPCE/PCE Scored: 3/10000
  PCE/Total Erythrocytes (Mean +/− SD): 0.543 ± 0.03
[6]; 125 mg/kg, 48-h timepoint
  Change from Control (%): −14%
  Number of MPCE/1000 PCE (Mean +/− SD): 0.2 ± 0.27
  Number of MPCE/PCE Scored: 2/10000
  PCE/Total Erythrocytes (Mean +/− SD): 0.453 ± 0.03
[6]; 250 mg/kg, 24-h timepoint
  Change from Control (%): −12%
  Number of MPCE/1000 PCE (Mean +/− SD): 0.3 ± 0.27
  Number of MPCE/PCE Scored: 3/10000
  PCE/Total Erythrocytes (Mean +/− SD): 0.520 ± 0.06
[6]; 250 mg/kg, 48-h timepoint
  Change from Control (%): −26%
  Number of MPCE/1000 PCE (Mean +/− SD): 0.2 ± 0.27
  Number of MPCE/PCE Scored: 2/10000
  PCE/Total Erythrocytes (Mean +/− SD): 0.391 ± 0.02
[6]; 500 mg/kg, 24-h timepoint
  Change from Control (%): −28%
  Number of MPCE/1000 PCE (Mean +/− SD): 0.0 ± 0.00
  Number of MPCE/PCE Scored: 0/10000
  PCE/Total Erythrocytes (Mean +/− SD): 0.426 ± 0.07
[6]; 500 mg/kg, 48-h timepoint
  Change from Control (%): −36%
  Number of MPCE/1000 PCE (Mean +/− SD): 0.3 ± 0.45
  Number of MPCE/PCE Scored: 3/10000
  PCE/Total Erythrocytes (Mean +/− SD): 0.339 ± 0.05
[6]; 1000 mg/kg, 24-h timepoint
  Change from Control (%): −15%
  Number of MPCE/1000 PCE (Mean +/− SD): 0.2 ± 0.27
  Number of MPCE/PCE Scored: 2/10000
  PCE/Total Erythrocytes (Mean +/− SD): 0.498 ± 0.05
[6]; 1000 mg/kg, 48-h timepoint
  Change from Control (%): −35%
  Number of MPCE/1000 PCE (Mean +/− SD): 0.1 ± 0.22
  Number of MPCE/PCE Scored: 1/10000
  PCE/Total Erythrocytes (Mean +/− SD): 0.344 ± 0.04
[6]; 1500 mg/kg, 24-h timepoint
  Change from Control (%): −15%
  Number of MPCE/1000 PCE (Mean +/− SD): 0.4 ± 0.22
  Number of MPCE/PCE Scored: 4/10000
  PCE/Total Erythrocytes (Mean +/− SD): 0.499 ± 0.06
[6]; 1500 mg/kg, 48-h timepoint
  Change from Control (%): −39%
  Number of MPCE/1000 PCE (Mean +/− SD): 0.4 ± 0.42
  Number of MPCE/PCE Scored: 4/10000
  PCE/Total Erythrocytes (Mean +/− SD): 0.376 ± 0.05
[6]; 2000 mg/kg, 24-h timepoint
  Change from Control (%): −10%
  Number of MPCE/1000 PCE (Mean +/− SD): 0.2 ± 0.27
  Number of MPCE/PCE Scored: 2/10000
  PCE/Total Erythrocytes (Mean +/− SD): 0.531 ± 0.05
[6]; 2000 mg/kg, 48-h timepoint
  Change from Control (%): −32%
  Number of MPCE/1000 PCE (Mean +/− SD): 0.1 ± 0.22
  Number of MPCE/PCE Scored: 1/10000
  PCE/Total Erythrocytes (Mean +/− SD): 0.360 ± 0.03
[6]; 125-2000 mg/kg
  genotoxicity in the in vivo micronucleus study: 63415 is Negative for Genotoxicity
[7]; ocular topical administration
  eye tissues with the highest concentrations: cornea, retina, or iris
[7]; once per day for 5 days
  plasma concentrations after oral vs topical ocular administration: ~100 fold
